Some test systems named below: HCC-2998 colon; 786-0 renal; A549 NSCLC; U251 CNS; COLO 205 colon; SNB-75 CNS; NCI-H460 lung; EKVX NSCLC; HCT-116 colon.
Assay in all cases: NCI-60 cell line screen, 48 h

Structures are written as SMILES.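 In this assay, cells in 96-well plates receive the compound at five concentrations for 48 hours. Endpoints are linearly interpolated between the surrounding concentrations. The concentration for 50% growth inhibition is given as GI50. TGI: concentration producing complete growth inhibition.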

Consider `CC(=O)NNc1ncc(C(=O)/C=C/c2ccccc2C)s1`, for which the TGI in the test with HCC-2998 colon, in the test with 786-0 renal, in the test on A549 NSCLC, with U251 CNS, in the test on COLO 205 colon and with SNB-75 CNS was greater than 100 µM in each case. Also, the TGI in the test with NCI-H460 lung and with EKVX NSCLC was greater than 100 µM in each case.

With `CN1CCN(c2ccncc2S(=O)(=O)N2CCN(C)CC2)CC1`, the TGI in the test with 786-0 renal, in the test with A549 NSCLC, in the test on U251 CNS, in the test with COLO 205 colon, in the test on HCT-116 colon and with SNB-75 CNS was greater than 100 µM each time. The TGI in the test with NCI-H460 lung and in the test on EKVX NSCLC was greater than 100 µM in each case.

On to `O=C1CC=C2C3CC4N(CCC45c4ccccc4N1C25)C/C3=C\CO` (stereo not given), for which the TGI with HCC-2998 colon, with 786-0 renal, in the test with A549 NSCLC, in the test on U251 CNS, in the test on COLO 205 colon and with HCT-116 colon was greater than 100 µM in each case. The TGI in the test on SNB-75 CNS, in the test with NCI-H460 lung and in the test on EKVX NSCLC was greater than 100 µM each time.

For the compound `Cc1cccc2c(=O)c3c(sc12)c(NCCCN)nc1ccccc13`, the GI50 with HCC-2998 colon is 1.67 µM; in the test on 786-0 renal it was 1.69 µM; in the test on A549 NSCLC, 0.88 µM; with U251 CNS it was 1.51 µM; with COLO 205 colon it was 1.56 µM; in the test with HCT-116 colon, 1.48 µM. For the same compound, the figures for the GI50 with SNB-75 CNS, in the test with NCI-H460 lung and in the test with EKVX NSCLC were 1.02 µM, 0.825 µM and 1.58 µM, respectively. For the same compound, the TGI in the test with HCC-2998 colon is 3.39 µM; in the test with 786-0 renal it was 3.28 µM; in the test with A549 NSCLC, 2.45 µM; in the test on U251 CNS, 3.01 µM; with COLO 205 colon it was 3.23 µM; in the test on HCT-116 colon, 2.91 µM. Further, the TGI in the test on SNB-75 CNS is 2.31 µM; with NCI-H460 lung, 2.25 µM; in the test with EKVX NSCLC, 3.14 µM.

Take `CON1C(=O)C2(CCCCC2)C(=O)C12C=CC(C)CC2` (stereo not given): the TGI in the test on HCC-2998 colon, with 786-0 renal, in the test on A549 NSCLC, in the test with U251 CNS, with COLO 205 colon and with SNB-75 CNS was greater than 100 µM in each case. Further, the TGI with NCI-H460 lung and in the test on EKVX NSCLC was greater than 100 µM each time.

As to `CO[C@H]1/C=C/O[C@@]2(C)Oc3c(C)c(O)c4c(O)c(c(/C=N/N5C(C)CN(Cc6ccc(C#N)cc6)CC5C)c(O)c4c3C2=O)NC(=O)/C(C)=C\C=C\[C@H](C)[C@H](O)[C@@H](C)[C@@H](O)[C@@H](C)[C@H](OC(C)=O)[C@@H]1C` (stereo not given in full), the GI50 in the test with HCC-2998 colon is 7.87 µM; in the test with 786-0 renal, 8.79 µM; with A549 NSCLC, 6.81 µM; in the test with U251 CNS it was 6.04 µM; in the test with COLO 205 colon, 6.82 µM; in the test on HCT-116 colon, 5.41 µM. The GI50 with SNB-75 CNS is 7.25 µM; with NCI-H460 lung, 5.76 µM; in the test with EKVX NSCLC it was 4.26 µM. Further, the TGI in the test with HCC-2998 colon stood at 17.6 µM; in the test with 786-0 renal, 16.8 µM; in the test with A549 NSCLC it was 17.1 µM; with U251 CNS, 12.2 µM; in the test on COLO 205 colon, 16.4 µM; in the test on HCT-116 colon, 12.7 µM. The TGI in the test with SNB-75 CNS came to 18.5 µM; with NCI-H460 lung it was 14.1 µM; in the test with EKVX NSCLC, 39.4 µM.

As to `C=CCN=C1NC(=O)C(CC(=O)Nc2cccc(Cl)c2)S1` (stereo not given), the TGI in the test with HCC-2998 colon, in the test with 786-0 renal, in the test with A549 NSCLC, in the test on U251 CNS, in the test with COLO 205 colon and in the test on SNB-75 CNS was greater than 100 µM each time. Besides, the TGI with NCI-H460 lung and in the test with EKVX NSCLC was greater than 100 µM each time.

With `Cc1cc(C)c([I+]c2c(C)cc(C)cc2C)c(C)c1`, the GI50 in the test on HCC-2998 colon is 0.415 µM; in the test with 786-0 renal, 0.749 µM; in the test with A549 NSCLC, 0.958 µM; in the test on U251 CNS, 0.32 µM; in the test with COLO 205 colon, 0.342 µM; with HCT-116 colon, 0.348 µM. The GI50 in the test with SNB-75 CNS was 0.342 µM; in the test on NCI-H460 lung, 0.846 µM. In addition, the TGI in the test with HCC-2998 colon was found to be 1.73 µM; with 786-0 renal, 2.11 µM; in the test on A549 NSCLC, 2.47 µM; in the test on U251 CNS, 1.38 µM; in the test on COLO 205 colon, 1.3 µM; in the test on HCT-116 colon, 1.35 µM. The results for the TGI with SNB-75 CNS and in the test with NCI-H460 lung were 1.39 µM and 2.3 µM, respectively.

As for `O=C(NC1CCCCC1)NC12CC3CC(CC(F)(C3)C1)C2`, the TGI in the test with HCC-2998 colon, in the test with 786-0 renal, with A549 NSCLC, in the test with U251 CNS, with COLO 205 colon and in the test on HCT-116 colon was greater than 100 µM in each case. Also, the TGI in the test with SNB-75 CNS, in the test with NCI-H460 lung and in the test on EKVX NSCLC was greater than 100 µM throughout.

Regarding `Oc1ccc(O)c(-n2cccn2)c1`, the TGI is greater than 100 µM in the test on HCC-2998 colon; greater than 100 µM in the test with 786-0 renal; greater than 100 µM in the test on A549 NSCLC; greater than 100 µM in the test with U251 CNS; 46.2 µM with COLO 205 colon; greater than 100 µM in the test on SNB-75 CNS. Besides, the TGI in the test on NCI-H460 lung and with EKVX NSCLC was greater than 100 µM each time.

Turning to `NCCCNCc1c2ccccc2c(CNCCCN)c2ccccc12`, the TGI with HCC-2998 colon is 30.9 µM; in the test on 786-0 renal it was 36.2 µM; in the test with A549 NSCLC it was 82.6 µM; in the test on U251 CNS, greater than 100 µM; with COLO 205 colon, 22.8 µM; in the test with HCT-116 colon, 48.2 µM. Also, the TGI amounted to 44 µM in the test with SNB-75 CNS, 32.6 µM in the test on NCI-H460 lung and 43.5 µM in the test on EKVX NSCLC.

On to `Cn1nc(-c2ccccc2)c2c(/C=C/c3ccc(F)cc3)onc2c1=O`, for which the TGI with 786-0 renal, with A549 NSCLC, with U251 CNS, in the test on COLO 205 colon, in the test on HCT-116 colon and in the test with NCI-H460 lung was greater than 100 µM each time. In the test with EKVX NSCLC, this compound registered a TGI greater than 100 µM.

Turning to `Nc1ccc(C(=O)CC2(O)C(=O)Nc3ccccc32)cc1` (stereo not given), the TGI in the test on 786-0 renal, in the test with A549 NSCLC, in the test on COLO 205 colon, in the test on HCT-116 colon, in the test on SNB-75 CNS and in the test on NCI-H460 lung was greater than 100 µM each time. Also, the TGI with EKVX NSCLC is greater than 100 µM.

With `Cc1ccccc1SC(/C=C/NNC1=NC(c2ccccc2)C(c2ccccc2)=NN1)c1ccccc1` (stereo not given), the TGI in the test with HCC-2998 colon was greater than 100 µM; in the test with 786-0 renal it was 25.9 µM; in the test with A549 NSCLC it was 46.7 µM; in the test on U251 CNS, 64.7 µM; with COLO 205 colon, greater than 100 µM; with SNB-75 CNS, 20.8 µM. In addition, the TGI in the test with NCI-H460 lung and with EKVX NSCLC was greater than 100 µM in each case.

For `Clc1ccc(-c2nnc(-c3nn(-c4ccccc4)c4nc5ccccc5nc34)o2)cc1`, the TGI in the test on HCC-2998 colon, in the test on 786-0 renal, with A549 NSCLC, in the test with U251 CNS, in the test with COLO 205 colon and in the test with HCT-116 colon was greater than 100 µM in each case. The TGI in the test on SNB-75 CNS, in the test on NCI-H460 lung and in the test with EKVX NSCLC was greater than 100 µM in each case.

Take `CC(C)(C)OC(=O)NC(Cc1ccccc1)C(=S)N1CCCC1` (stereo not given): the TGI in the test on HCC-2998 colon, with 786-0 renal, in the test on A549 NSCLC, with U251 CNS, with COLO 205 colon and in the test on HCT-116 colon was greater than 100 µM in each case. For the same compound, the TGI in the test on SNB-75 CNS, with NCI-H460 lung and in the test with EKVX NSCLC was greater than 100 µM each time.

With `C/C(=N\NC(=O)c1ccccc1O)c1c(O)cc(C)oc1=O`, the TGI in the test with HCC-2998 colon, with 786-0 renal, with A549 NSCLC, with U251 CNS, in the test on COLO 205 colon and with HCT-116 colon was greater than 100 µM each time. The results for the TGI in the test with SNB-75 CNS, in the test with NCI-H460 lung and in the test on EKVX NSCLC were greater than 100 µM, greater than 100 µM and 88.6 µM, respectively.

Regarding `Cn1c(=O)nc2n(-c3ccc(F)c(F)c3)c3ccccc3nc-2c1=O`, the TGI in the test on HCC-2998 colon was 23.7 µM; in the test with 786-0 renal, greater than 100 µM; with A549 NSCLC it was 60.5 µM; in the test with U251 CNS, 36.2 µM; in the test with COLO 205 colon, 15.7 µM; in the test on HCT-116 colon, 26.5 µM. Further, the TGI with SNB-75 CNS came to 75 µM; in the test with NCI-H460 lung, 35.5 µM; in the test on EKVX NSCLC it was 17.7 µM.

Take `COc1cccc(C2SC(C)C(=O)N2NC(=O)C(O)c2ccccc2)c1` (stereo not given): the GI50 with HCC-2998 colon, with 786-0 renal, with A549 NSCLC, in the test on U251 CNS, with COLO 205 colon and with HCT-116 colon was greater than 100 µM in each case. Further, the GI50 with SNB-75 CNS, in the test with NCI-H460 lung and in the test on EKVX NSCLC was greater than 100 µM in each case. Also, the TGI with HCC-2998 colon, in the test on 786-0 renal, with A549 NSCLC, in the test with U251 CNS, in the test on COLO 205 colon and in the test on HCT-116 colon was greater than 100 µM in each case. For the same compound, the TGI in the test with SNB-75 CNS, in the test on NCI-H460 lung and in the test with EKVX NSCLC was greater than 100 µM in each case.

(Values after PubChem BioAssay (NCI).)
